Earlier results on one substance are cited in patent US20160235072A1, “ANTIMICROBIAL POLYMER CONCENTRATES AND COMPOUNDS” (POLYONE CORPORATION, priority 2013, published 2016).

The test system of this data set is pathogens from the Streptococcus and Staphylococcus genera.

As for Zinc pyrithione, the effectiveness against pathogens entry is listed as “effective against many pathogens”.
